Measured values from ChEMBL document CHEMBL5584224, “Recent advances in c-Met-based dual inhibitors in the treatment of cancers” (Eur J Med Chem, 2024).

Legend:
NCI-H3122 = assay: Antiproliferative activity against human NCI-H3122 cells assessed as reduction in cell viability incubated for 48 hrs by MTT assay; assay type: functional, cell-based; conditions: NCI-H3122, 48 h
[1] = Inhibition of TrxR (unknown origin); design: species or system Homo sapiens
[2] = molecular target: Hepatocyte growth factor receptor (Homo sapiens, UniProt P08581)
Description: Inhibition of c-MET (unknown origin)

HCCLM3 = assay: Cytotoxicity against human HCCLM3 cells assessed as cell growth inhibition incubated for 48 hrs by MTT assay; assay type: functional, cell-based; conditions: HCCLM3, 48 h
HCC827 = assay: Antiproliferative activity against human HCC827 cells; assay type: functional, cell-based
[3] = molecular target: ALK tyrosine kinase receptor (Homo sapiens, UniProt Q9UM73); assay: Inhibition of ALK (unknown origin)
A-431 = assay: Antiproliferative activity against human A-431 cells assessed as reduction in cell viability incubated for 24 hrs by MTT assay; assay type: functional, cell-based; conditions: A-431, 24 h
NCI-H1975 = assay: Antiproliferative activity against human NCI-H1975 cells assessed as reduction in cell viability incubated for 48 hrs by MTT assay; assay type: functional, cell-based; conditions: NCI-H1975, 48 h
A549 [4] = assay: Antiproliferative activity against human A549 cells assessed as reduction in cell viability incubated for 72 hrs by MTT assay; assay type: functional, cell-based; conditions: A549, 72 h
PC-9 = assay: Antiproliferative activity against human PC-9 cells assessed as reduction in cell growth incubated for 72 hrs by MTT assay; assay type: functional, cell-based; conditions: PC-9, 72 h
[5] = molecular target: Prostaglandin G/H synthase 2 (Homo sapiens, UniProt P35354); assay: Inhibition of COX-2 (unknown origin)
MCF7 = assay: Antiproliferative activity against human MCF7 cells assessed as reduction in cell viability incubated for 24 hrs by MTT assay; assay type: functional, cell-based; conditions: MCF7, 24 h
HT-29 = assay: Antiproliferative activity against human HT-29 cells assessed as reduction in cell viability incubated for 24 hrs by MTT assay; assay type: functional, cell-based; conditions: HT-29, 24 h
MDA-MB-231 = assay: Antiproliferative activity against human MDA-MB-231 cells assessed as reduction in cell viability incubated for 24 hrs by MTT assay; assay type: functional, cell-based; conditions: MDA-MB-231, 24 h
A549 [6] = assay: Antiproliferative activity against human A549 cells assessed as reduction in cell viability incubated for 24 hrs by MTT assay; assay type: functional, cell-based; conditions: A549, 24 h
COLO 205 = assay: Antiproliferative activity against human COLO 205 cells assessed as reduction in cell viability incubated for 24 hrs by MTT assay; assay type: functional, cell-based; conditions: COLO 205, 24 h
MHCC97H = assay: Antiproliferative activity against human MHCC97H cells assessed as cell growth inhibition incubated for 48 hrs by MTT assay; assay type: functional, cell-based
MKN-45 = assay: Antiproliferative activity against human MKN-45 cells assessed as cell growth inhibition incubated for 48 hrs by MTT assay; assay type: functional, cell-based; conditions: MKN-45, 48 h
[7] = molecular target: T1, Tyrosine-protein kinase receptor UFO (Homo sapiens, UniProt P30530); assay: Inhibition of AXL (unknown origin)
T1 sequence (P30530 whole entry): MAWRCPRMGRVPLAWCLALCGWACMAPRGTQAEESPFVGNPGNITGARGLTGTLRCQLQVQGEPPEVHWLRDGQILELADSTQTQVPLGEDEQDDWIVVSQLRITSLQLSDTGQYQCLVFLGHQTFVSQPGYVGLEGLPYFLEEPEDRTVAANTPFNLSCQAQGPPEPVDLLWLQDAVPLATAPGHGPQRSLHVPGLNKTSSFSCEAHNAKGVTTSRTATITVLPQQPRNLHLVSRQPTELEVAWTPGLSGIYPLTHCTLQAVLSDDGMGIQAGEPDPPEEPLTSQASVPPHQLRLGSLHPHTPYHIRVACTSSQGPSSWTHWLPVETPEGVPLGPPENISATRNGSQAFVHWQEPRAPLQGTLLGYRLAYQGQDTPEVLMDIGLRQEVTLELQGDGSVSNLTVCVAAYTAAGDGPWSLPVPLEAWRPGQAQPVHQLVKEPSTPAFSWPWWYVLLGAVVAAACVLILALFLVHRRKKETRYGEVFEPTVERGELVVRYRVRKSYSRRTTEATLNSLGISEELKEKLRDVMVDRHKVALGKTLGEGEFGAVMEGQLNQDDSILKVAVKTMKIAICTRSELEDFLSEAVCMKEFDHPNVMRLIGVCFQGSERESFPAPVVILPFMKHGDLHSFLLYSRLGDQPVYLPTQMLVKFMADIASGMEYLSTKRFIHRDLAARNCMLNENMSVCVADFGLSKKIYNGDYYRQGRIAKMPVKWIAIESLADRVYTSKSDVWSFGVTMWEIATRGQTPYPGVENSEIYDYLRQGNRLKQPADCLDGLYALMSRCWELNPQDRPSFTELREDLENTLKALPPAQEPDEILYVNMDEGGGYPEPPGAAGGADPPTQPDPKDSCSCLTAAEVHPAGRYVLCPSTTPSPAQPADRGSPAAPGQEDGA

Hepatocyte growth factor receptor, sequence (P08581 whole entry): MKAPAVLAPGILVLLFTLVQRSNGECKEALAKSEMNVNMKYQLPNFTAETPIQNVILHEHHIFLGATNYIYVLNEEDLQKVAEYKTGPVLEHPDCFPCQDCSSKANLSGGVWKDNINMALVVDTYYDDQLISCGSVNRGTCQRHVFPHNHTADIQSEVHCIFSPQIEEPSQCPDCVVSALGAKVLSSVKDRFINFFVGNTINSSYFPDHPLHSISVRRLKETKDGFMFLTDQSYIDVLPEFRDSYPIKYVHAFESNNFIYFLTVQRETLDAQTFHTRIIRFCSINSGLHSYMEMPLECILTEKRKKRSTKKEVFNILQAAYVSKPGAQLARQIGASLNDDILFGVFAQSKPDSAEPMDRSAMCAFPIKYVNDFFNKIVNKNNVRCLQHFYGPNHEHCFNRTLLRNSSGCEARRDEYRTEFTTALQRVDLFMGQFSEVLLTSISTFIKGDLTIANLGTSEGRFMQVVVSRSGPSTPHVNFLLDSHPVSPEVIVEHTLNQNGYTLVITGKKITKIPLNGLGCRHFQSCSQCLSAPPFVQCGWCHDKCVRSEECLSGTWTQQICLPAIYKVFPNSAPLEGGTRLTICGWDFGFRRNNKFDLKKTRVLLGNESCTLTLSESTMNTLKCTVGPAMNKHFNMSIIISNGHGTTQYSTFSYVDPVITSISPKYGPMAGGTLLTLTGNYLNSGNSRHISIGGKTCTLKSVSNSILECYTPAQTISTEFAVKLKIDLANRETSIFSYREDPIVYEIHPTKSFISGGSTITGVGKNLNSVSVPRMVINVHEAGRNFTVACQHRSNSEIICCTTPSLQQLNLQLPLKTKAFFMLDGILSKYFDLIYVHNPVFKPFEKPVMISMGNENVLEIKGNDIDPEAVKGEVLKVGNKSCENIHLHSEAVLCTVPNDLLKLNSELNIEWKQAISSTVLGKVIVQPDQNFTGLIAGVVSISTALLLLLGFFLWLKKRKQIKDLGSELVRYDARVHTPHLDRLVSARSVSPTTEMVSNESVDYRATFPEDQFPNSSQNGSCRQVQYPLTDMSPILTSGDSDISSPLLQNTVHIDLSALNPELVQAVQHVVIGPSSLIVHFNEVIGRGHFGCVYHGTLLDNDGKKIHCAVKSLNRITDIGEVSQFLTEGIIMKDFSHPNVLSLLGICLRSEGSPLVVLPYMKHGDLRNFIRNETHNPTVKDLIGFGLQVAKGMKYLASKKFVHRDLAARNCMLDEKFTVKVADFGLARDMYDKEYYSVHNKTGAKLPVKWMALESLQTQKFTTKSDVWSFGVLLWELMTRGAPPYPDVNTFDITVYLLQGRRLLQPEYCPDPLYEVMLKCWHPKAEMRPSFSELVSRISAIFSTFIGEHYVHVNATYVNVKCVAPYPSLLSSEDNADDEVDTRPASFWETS
ALK tyrosine kinase receptor, sequence (Q9UM73 whole entry): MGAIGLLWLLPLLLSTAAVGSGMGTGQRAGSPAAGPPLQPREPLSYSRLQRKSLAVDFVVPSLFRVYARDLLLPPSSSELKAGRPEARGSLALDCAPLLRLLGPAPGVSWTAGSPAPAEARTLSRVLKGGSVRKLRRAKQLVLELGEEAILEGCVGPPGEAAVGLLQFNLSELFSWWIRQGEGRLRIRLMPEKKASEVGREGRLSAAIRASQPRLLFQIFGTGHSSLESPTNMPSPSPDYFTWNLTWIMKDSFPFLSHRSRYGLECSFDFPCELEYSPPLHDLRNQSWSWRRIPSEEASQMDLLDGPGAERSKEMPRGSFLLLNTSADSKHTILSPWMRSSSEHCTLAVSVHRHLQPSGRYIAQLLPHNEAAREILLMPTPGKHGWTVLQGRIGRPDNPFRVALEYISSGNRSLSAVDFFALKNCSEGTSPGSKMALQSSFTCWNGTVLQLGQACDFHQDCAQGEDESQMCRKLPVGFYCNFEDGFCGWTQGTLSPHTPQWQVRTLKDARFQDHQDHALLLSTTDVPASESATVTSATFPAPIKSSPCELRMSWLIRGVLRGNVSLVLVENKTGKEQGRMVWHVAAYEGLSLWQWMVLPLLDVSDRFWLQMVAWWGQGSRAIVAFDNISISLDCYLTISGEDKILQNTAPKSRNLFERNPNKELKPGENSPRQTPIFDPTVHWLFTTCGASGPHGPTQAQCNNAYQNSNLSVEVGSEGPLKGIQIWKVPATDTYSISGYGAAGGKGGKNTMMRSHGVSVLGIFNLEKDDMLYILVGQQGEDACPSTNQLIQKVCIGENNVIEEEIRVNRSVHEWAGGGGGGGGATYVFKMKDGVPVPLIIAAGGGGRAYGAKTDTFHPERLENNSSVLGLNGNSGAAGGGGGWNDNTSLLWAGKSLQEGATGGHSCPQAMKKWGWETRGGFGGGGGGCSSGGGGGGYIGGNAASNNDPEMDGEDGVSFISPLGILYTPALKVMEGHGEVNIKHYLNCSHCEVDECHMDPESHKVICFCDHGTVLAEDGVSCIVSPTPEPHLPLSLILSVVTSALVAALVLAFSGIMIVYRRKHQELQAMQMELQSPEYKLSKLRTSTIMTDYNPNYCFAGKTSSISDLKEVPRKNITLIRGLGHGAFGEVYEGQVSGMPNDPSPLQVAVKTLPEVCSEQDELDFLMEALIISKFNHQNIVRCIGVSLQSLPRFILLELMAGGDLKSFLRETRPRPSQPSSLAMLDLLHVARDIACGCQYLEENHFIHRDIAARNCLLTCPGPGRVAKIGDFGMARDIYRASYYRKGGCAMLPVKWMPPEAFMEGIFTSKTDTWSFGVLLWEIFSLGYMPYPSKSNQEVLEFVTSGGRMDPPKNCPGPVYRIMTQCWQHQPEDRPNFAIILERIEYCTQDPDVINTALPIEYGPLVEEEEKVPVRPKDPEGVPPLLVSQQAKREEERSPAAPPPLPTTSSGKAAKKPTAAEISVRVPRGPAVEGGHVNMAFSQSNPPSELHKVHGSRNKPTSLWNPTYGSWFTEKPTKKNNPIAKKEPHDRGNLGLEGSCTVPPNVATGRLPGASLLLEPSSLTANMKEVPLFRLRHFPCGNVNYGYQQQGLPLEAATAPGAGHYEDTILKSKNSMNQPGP
Prostaglandin G/H synthase 2, sequence (P35354 whole entry): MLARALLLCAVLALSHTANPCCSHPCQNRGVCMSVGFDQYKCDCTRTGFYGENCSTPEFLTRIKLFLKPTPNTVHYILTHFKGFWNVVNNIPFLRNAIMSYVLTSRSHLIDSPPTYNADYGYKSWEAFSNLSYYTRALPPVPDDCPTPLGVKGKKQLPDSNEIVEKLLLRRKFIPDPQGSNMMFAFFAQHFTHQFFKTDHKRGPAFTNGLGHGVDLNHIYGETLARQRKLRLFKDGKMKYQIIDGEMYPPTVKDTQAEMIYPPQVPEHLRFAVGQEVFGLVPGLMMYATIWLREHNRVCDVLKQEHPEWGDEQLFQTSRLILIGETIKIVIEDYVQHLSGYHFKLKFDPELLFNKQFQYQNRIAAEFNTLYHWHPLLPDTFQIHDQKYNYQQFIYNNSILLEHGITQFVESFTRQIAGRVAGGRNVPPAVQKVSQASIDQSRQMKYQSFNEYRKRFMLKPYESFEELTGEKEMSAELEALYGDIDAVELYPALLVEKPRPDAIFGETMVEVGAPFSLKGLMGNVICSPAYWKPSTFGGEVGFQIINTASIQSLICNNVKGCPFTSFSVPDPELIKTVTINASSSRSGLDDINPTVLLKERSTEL

C[C@@H](Oc1cc(C(=O)Nc2ccc(C(=O)N3CCN(C)CC3)cc2)nnc1N)c1c(Cl)ccc(F)c1Cl
IC50 (NCI-H3122): 77 nM

O=C(Nc1cccc(-c2nc(-c3ccc(NC(=O)c4cccnc4)cc3Cl)no2)c1)Nc1ccc(NC(=O)C2CC2)c(C(F)(F)F)c1
IC50 [1]: 500 nM

Fc1ccc(Cl)c(Sc2n[nH]c3ncc(-c4cnn(C5CCNCC5)c4)cc23)c1Cl
IC50 [2]: 14.6 nM

CN(C)CCC[Se]c1cnc(-c2cccc(Cn3nc(-c4cccc(C#N)c4)ccc3=O)c2)nc1
IC50 (HCCLM3): 13 nM

COCCN1CCC(C#Cc2c(Oc3ccc(NC(=O)c4ccnn(-c5ccc(F)cc5)c4=O)cc3F)ccnc2N)CC1
IC50 (HCC827): < 100 nM

c1coc(COCC2Cc3cn4ncnc(-c5cnn(C6CCNCC6)c5)c4c3C2)c1 (stereo not drawn)
IC50 [3]: 0.33 nM
IC50 (A-431): 699 nM
IC50 (NCI-H1975): 1.3 nM

Clc1ncccc1COCC1Cc2cn3ncnc(-c4cnn(C5CCNCC5)c4)c3c2C1 (stereo not drawn)
IC50 [3]: 1.88 nM
IC50 (A-431): > 1000 nM
IC50 (NCI-H1975): 39.2 nM

CNC(=O)c1ccccc1Nc1nc(Nc2ccc3c(c2)[C@@H](C)CNCC3)ncc1Cl
IC50 [3]: 7.9 nM
IC50 [2]: 6.4 nM

C=CC(=O)Nc1cc2c(Oc3ccc(NC(=O)c4c(C)n(C)n(-c5ccccc5)c4=O)cc3F)ncnc2cc1OC
IC50 (A549 [4]): 1060 nM
IC50 (PC-9): 1050 nM

O=C(/C=C/c1ccc(F)cc1)c1cccc(NC(=O)c2ccc(Cl)cc2)c1
IC50 [5]: 2430 nM
IC50 (MCF7): 7070 nM
IC50 (HT-29): 13600 nM
IC50 (MDA-MB-231): 43000 nM
IC50 (A549 [6]): 43800 nM
IC50 (COLO 205): < 100 nM
IC50 [2]: 7900 nM

c1cncc(COCC2Cc3cn4ncnc(-c5cnn(C6CCNCC6)c5)c4c3C2)c1 (stereo not drawn)
IC50 [3]: 1.59 nM
IC50 (A-431): > 1000 nM
IC50 (NCI-H1975): 45.2 nM

CC(C)N1CCC(CC#Cc2c(Oc3ccc(NC(=O)c4cn(C(C)C)c(=O)n(-c5ccc(F)cc5)c4=O)cc3F)ccnc2N)CC1
IC50 (HCC827): < 100 nM

C[C@@H](Oc1cc(C(=O)Nc2ccc(=O)n(C)c2)nnc1N)c1c(Cl)ccc(F)c1Cl
IC50 [3]: 60 nM
IC50 [2]: 40 nM

CC(C)n1cc(C(=O)Nc2ccc(Oc3ccnc(N)c3C#CC(=O)N3CCOCC3)c(F)c2)c(=O)n(-c2ccc(F)cc2)c1=O
IC50 (HCC827): < 100 nM

COCCN1CCC(C#Cc2c(Oc3ccc(NC(=O)c4cn(C(C)C)c(=O)n(-c5ccc(F)cc5)c4=O)cc3F)ccnc2N)CC1
IC50 (HCC827): < 100 nM

Cc1ccc(C(=O)Nc2cccc(C(=O)/C=C/c3ccc(F)cc3)c2)cc1
IC50 [5]: 1620 nM
IC50 (MCF7): 15700 nM
IC50 (HT-29): 10400 nM
IC50 (MDA-MB-231): 7930 nM
IC50 (A549 [6]): 37000 nM
IC50 (COLO 205): < 100 nM
IC50 [2]: 6610 nM

CN1CCN(CC#Cc2c(Oc3ccc(NC(=O)c4ccnn(-c5ccc(F)cc5)c4=O)cc3F)ccnc2N)CC1
IC50 (HCC827): < 100 nM

[2H][C@@](C)(c1cccc(-c2ncc(OCC3CCN(C)CC3)cn2)c1)n1nc(-c2cccc(C#N)c2)ccc1=O
IC50 (MHCC97H): 4.3 nM
IC50 (MKN-45): 1 nM

CC(C)n1cc(C(=O)Nc2ccc(Oc3ccnc(N)c3C#CC(C)(C)N3CCOCC3)c(F)c2)c(=O)n(-c2ccc(F)cc2)c1=O
IC50 (HCC827): < 100 nM

O=C(Nc1ccc(F)cc1)C1(C(=O)Nc2ccc(Oc3ncnn4cc(-c5cnn(CCO)c5)cc34)cc2)CC1
IC50 [7]: 8.6 nM

Cn1cc(-c2cc3c(Oc4ccc(NC(=O)C5(C(=O)Nc6ccc(F)cc6)CC5)cc4)ncnn3c2)cn1
IC50 [7]: 26 nM
